Drawing on patent publication US8633322B2, “Alkynyl derivatives useful as DPP-1 inhibitors” (Janssen Pharmaceutica NV, priority 2009, dated 2014), this text covers IC50 for 13 molecules.

As usually defined, the IC50 is the concentration at which inhibition is half-maximal.

T1 sequence (P53634 25-463): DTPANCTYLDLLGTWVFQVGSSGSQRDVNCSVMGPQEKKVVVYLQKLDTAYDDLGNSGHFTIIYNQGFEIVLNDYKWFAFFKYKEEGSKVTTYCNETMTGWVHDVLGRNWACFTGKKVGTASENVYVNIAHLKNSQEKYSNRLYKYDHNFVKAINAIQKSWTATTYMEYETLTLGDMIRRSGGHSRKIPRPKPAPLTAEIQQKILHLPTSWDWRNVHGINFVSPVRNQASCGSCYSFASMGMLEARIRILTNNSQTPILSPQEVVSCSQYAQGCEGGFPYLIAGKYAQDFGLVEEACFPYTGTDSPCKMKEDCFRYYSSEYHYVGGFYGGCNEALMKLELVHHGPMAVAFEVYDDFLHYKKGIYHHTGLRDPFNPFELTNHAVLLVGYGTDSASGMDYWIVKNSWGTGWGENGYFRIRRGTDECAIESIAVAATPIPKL

This assay concerns the target T1, recombinant human DPP-1 (Cathepsin C) (Homo sapiens, UniProt P53634).
T1 construct: made in house
The assay is described as follows: DPP-1 Inhibition Assay (In Vitro), fluorogenic substrate GR-AMC. The class given is biochemical. The settings on record: room temperature; 0.15 nM DPP-1, 10 uM GR-AMC, pH 7.0; average where tested multiple times. The protocol: Test compounds were assessed for DPP-1 (Cathepsin C) inhibitory activity using a fluorogenic substrate, GR-AMC (Glycine-Arginine-amino-4-methylcoumarin, Bachem, 1-1215). The amount of amino-methylcoumarin released is proportional to the DPP-1 activity, and the reaction is monitored kinetically with a Molecular Devices plate reader using black 96-well plates.
All compounds were tested under room temperature conditions. The assay buffer consisted of 50 mM HEPES, pH 7.0, 100 mM NaCl, 2 mM glutathione (GSH), and 0.002% TWEEN 20. GSH and TWEEN 20 were added to the buffer fresh daily. Just prior to use, an in-house preparation of recombinant human DPP-1 (240 μM stock, MW 49.6 kD) was diluted 600-fold in assay buffer containing fresh 2 mM dithiothreitol (DTT) to activate the enzyme, then diluted into assay buffer (without DTT) 133-fold for a DPP-1 working solution of 3 nM. Test compounds were diluted in DMSO for 20× their final assay concentrations.
Additions to a 96-well black Costar 3915 plates were as follows: 90 μL of 11 μM GR-AMC, 5 μL test compound (followed by mixing), and 5 μL 3 nM DPP1 to start the reaction. Fluorescent reactions were monitored kinetically at 360 nm excitation, 440 nm emission on a Molecular Devices Spectramax XPS reader. The Softmax Pro software of the reader determined the initial velocity of the selected data (the first 3-5 minutes of the reaction), and the best linear regression fit of the initial kinetic data. Final assay conditions were 0.15 nM DPP-1, 10 uM GR-AMC, 50 mM HEPES, pH 7.0, 100 mM NaCl, 2 mM GSH, 0.002% TWEEN 20, 1 uM DTT, 5.0% DMSO. Initial velocity rates were plotted vs. test compound concentration by use of a four-parameter logistics equation (nonlinear regression, sigmoidal dose-response (variable slope), with fixed Hill (1.0) using GraphPad Prism® software for determination of DPP-1 IC50. Within-run assay coefficient of variation (CV) was generally <10%; between-run CV <20%.
Representative compounds of the present invention were tested according to the procedure as described above, with results as listed in Table 2, below. Additionally, Table 2 below lists the measured mass for said representative compounds of the present invention, more particularly the mass of the MH^+ ion.
On to `N[C@@H](Cc1ccccn1)C(=O)NCCCC#Cc1cccc(OC2CCNCC2)c1` [Compound 90], for which the IC50 came to 12 µM.
For `CC[C@@H](N)C(=O)NCCCC#Cc1cccc(OC)c1` [Compound 92] the value was 17 µM.
On to `CC[C@H](N)C(=O)NCCCC#Cc1ccc(C(C)C)cc1` [Compound 95], for which the IC50 turned out to be 1.2 µM.
For the molecule `CC[C@H](N)C(=O)NCCCC#Cc1ccc2c(c1)OCCO2` [Compound 97], the concentration for half-maximal inhibition (IC50) amounted to 5 µM.
Consider `CC[C@H](N)C(=O)NCCCC#Cc1ccccc1` [Compound 98], for which the IC50 turned out to be 7.9 µM.
Then `CC[C@H](N)C(=O)NCCCC#Cc1ccccc1OC` [Compound 99], with 12 µM; and `CC[C@H](N)C(=O)NCCCC#Cc1ccc(NC(C)=O)cc1` [Compound 100], with 6.3 µM; and `CC[C@H](N)C(=O)NCCCC#Cc1ccc2c(c1)Cc1ccccc1-2` [Compound 101], with 1.7 µM.
Then `CC[C@H](N)C(=O)NCCCC#Cc1cccc(F)c1F` [Compound 102], with 6.1 µM; and `CC[C@H](N)C(=O)NCCCC#Cc1ccccc1NC(C)=O` [Compound 103], with 5.4 µM.
Consider `CC[C@H](N)C(=O)NCCCC#Cc1ccccc1O` [Compound 104], for which the 50% inhibitory concentration (IC50) worked out at 8 µM.
Then `CC[C@H](N)C(=O)NCCCC#Cc1c(O)ccc2ccccc12` [Compound 105], with more than 10 µM.
For `CC[C@H](N)C(=O)NCCCC#Cc1c(F)ccc2ccccc12` [Compound 106] the value was 6 µM.
